Experimental data taken from patent US10201532B2, “Compounds and their use” (ALLECRA THERAPEUTICS GMBH, priority 2010, dated 2019).

How the values were obtained:
[1] = test system: KPC/ESBL producing Enterobacteriaceae; assay: Double Disk Synergy Test (Methodology 1); type: cell-based, Klebsiella pneumoniae, Escherichia coli; details: Compound-1 60 μg disk at 7 & 10 mm from antibiotic disks; FIG. 1
Text: (§1) In this experiment, Compound-1 is used as a diagnostic reagent for the detection of β-lactamases belonging to the families KPC & ESBL (e.g., SHV18) producing Enterobacteriaceae. A simple set of absorbent paper disks impregnated with antibiotic on agar medium is used for the detection.
(§2) • 0.5 McFarland of the test organism was inoculated at 1:10 dilution on Muller • Hinton Agar plates • Test organisms: Klebsiella pneumoniae (K.p) ATCC BAA-1705, Klebsiella pneumoniae ATCC 700603, Escherichia coli (E.c) Ecoli233 • Carbapenem (e.g., Imipenem [IPM] 10 μg) and cephalosporin (e.g., Ceftazidime [CAZ] 30 μg) paper disks (7 mm) were placed on the inoculated agar plates • Compound-1 (60 μg) disk was placed at a distance of 7 & 10 mm from the carbapenem and cephalosporin disks. • The presence of expressed carbapenemases or ESBLs was measured as the expansion of Imipenem or Ceftazidime's inhibition zones due to synergy in the presence of Compound-1.

[2] = test system: K. pneumoniae ATCC BAA-1705 (KPC2); assay: Disk zone of inhibition, antibiotic + Compound-1 on same disk (Methodology 2); type: cell-based, Klebsiella pneumoniae
Text: as §1, §2
(§3) The methodology remains the same as Methodology 1 except the following change • Compound-1 (60 μg) was added on the same disk in combination with a carbapenem (e.g., Imipenem 10 μg) or cephalosporin (e.g., Ceftazidime 30 μg) and placed on the inoculated agar plate. • The presence of the expressed carbapenemases or ESBLs was measured as an increase in Imipenem or Ceftazidime's zone diameter in combination with Compound-1 compared to antibiotic alone. Results

[3] = test system: E. coli Ecoli233 (KPC3); assay: as above; type: cell-based, Escherichia coli
Text: as §1, §2, §3

[4] = test system: E. coli BAA-198 (TEM-26); assay: MIC of Piperacillin with inhibitor, ESBL isolates; type: cell-based, Escherichia coli
[5] = test system: K. pneumoniae 700603 (SHV-18); assay: MIC of Piperacillin with inhibitor, ESBL isolates; type: cell-based, Klebsiella pneumoniae
[6] = test system: E. coli BAA-199 (SHV-3); assay: MIC of Piperacillin with inhibitor, ESBL isolates; type: cell-based, Escherichia coli
[7] = Ceftazidime 30 μg + Compound-1 60 μg on same disk
[8] = Imipenem 10 μg + Compound-1 60 μg on same disk

Compound	Synergy: increase of Imipenem or Ceftazidime zone adjacent to Compound-1 disk [1]	ZOI of CAZ + Compound-1 [2, 7]	ZOI of IPM + Compound-1 [2, 8]	ZOI of CAZ + Compound-1 [3, 7]	ZOI of IPM + Compound-1 [3, 8]	MIC of Piperacillin with inhibitor ([4]; inhibitor at 1 μg/mL)	MIC of Piperacillin with inhibitor ([4]; inhibitor at 2 μg/mL)	MIC of Piperacillin with inhibitor ([4]; inhibitor at 4 μg/mL)	MIC of Piperacillin with inhibitor ([5]; inhibitor at 1 μg/mL)	MIC of Piperacillin with inhibitor ([5]; inhibitor at 2 μg/mL)	MIC of Piperacillin with inhibitor ([5]; inhibitor at 4 μg/mL)	MIC of Piperacillin with inhibitor ([6]; inhibitor at 1 μg/mL)	MIC of Piperacillin with inhibitor ([6]; inhibitor at 2 μg/mL)	MIC of Piperacillin with inhibitor ([6]; inhibitor at 4 μg/mL)
C[n+]1ccn(C[C@@]2(C)[C@H](C(=O)[O-])N3C(=O)C[C@H]3S2(=O)=O)n1 [Compound-1, 1-{[(2S,3S,5R)-2-Carboxy-3-methyl-4,4,7-trioxo-4-thia-1-azabicyclo[3.2.0]hept-3-yl]methyl}-3-methyl-1H-1,2,3-triazol-3-ium]	Synergy was observed	18.5 mm	20 mm	22.5 mm	20 mm									
C[C@]1(Cn2ccnn2)[C@H](C(=O)O)N2C(=O)C[C@H]2S1(=O)=O [Tazobactam]						4 µg/mL	4 µg/mL	4 µg/mL	16 µg/mL	16 µg/mL	16 µg/mL	>128 µg/mL	>128 µg/mL	>128 µg/mL
